The source made the active and inactive calls. The calls are words filed in the database; no cut-off is given here.
Species on record: Rattus norvegicus
Assay: Effective dose of compound required for in vitro effect on growth hormone release was measured in rat pituitary cell assay
Assay type: functional, Pituitary gland cell
Conditions: Rattus norvegicus, Pituitary gland cell; read-out: ED50 (the source's name)
`CC(C)(N)CC(=O)N[C@@H]1CC(=O)c2ccccc2N(Cc2ccc(-c3ccccc3-c3nn[nH]n3)cc2)C1=O` showed an EC50 of 2.7 µM.
Work on `CC(C)(N)CC(=O)N[C@@H]1COc2ccccc2N(Cc2ccc(-c3ccccc3-c3nn[nH]n3)cc2)C1=O` yielded an EC50 of 0.12 µM.
`CC(C)(N)CC(=O)NC1CCc2ccccc2N(Cc2ccc(-c3ccccc3-c3nn[nH]n3)cc2)C1=O` [L-158432] was tested, and the EC50 was 0.12 µM.
For `CC(C)(N)CC(=O)N[C@@H]1C[S+]([O-])c2ccccc2N(Cc2ccc(-c3ccccc3-c3nn[nH]n3)cc2)C1=O` (stereo in doubt), the EC50 was 3 µM.
With `CC(C)(N)CC(=O)N[C@@H]1CS(=O)(=O)c2ccccc2N(Cc2ccc(-c3ccccc3-c3nn[nH]n3)cc2)C1=O` the EC50 was 1 µM.
Compound `CC(C)(N)CC(=O)N[C@@H]1CCc2ccccc2N(Cc2ccc(-c3ccccc3-c3nn[nH]n3)cc2)C1=O` has an EC50 of 0.06 µM.
`CC(C)(N)CC(=O)NC1Sc2ccccc2N(Cc2ccc(-c3ccccc3-c3nn[nH]n3)cc2)C1=O` (configuration not stated) showed an EC50 of 0.5 µM.
`CC(C)(N)CC(=O)N[C@@H]1CC(O)c2ccccc2N(Cc2ccc(-c3ccccc3-c3nn[nH]n3)cc2)C1=O` (some centres not stated) gave an EC50 of 4 µM.
`CC(C)(N)CC(=O)N[C@@H]1CSc2ccccc2N(Cc2ccc(-c3ccccc3-c3nn[nH]n3)cc2)C1=O` gave an EC50 of 0.1 µM.
`CC(C)(N)CC(=O)NC1Cc2ccccc2N(Cc2ccc(-c3ccccc3-c3nn[nH]n3)cc2)C1=O` (configuration not stated) was tested, and the EC50 was 2 µM.

Same assay, conditions: read-out: ED50 (the source's name)
Compound `CC(C)(N)CC(=O)N[C@@H]1C[S+]([O-])c2ccccc2N(Cc2ccc(-c3ccccc3-c3nn[nH]n3)cc2)C1=O` (stereo in doubt; 22a) has an EC50 of 4 µM.

Species on record: Rattus norvegicus
Assay: Effective dose of compound required for in vitro effect on growth hormone release was measured in rat pituitary cell assay; IA means compound is inactive at 20 ug/mL concentration
Assay type: functional
Conditions: Pituitary gland cell
In the case of `CC1=NC(NC(=O)CC(C)(C)N)C(=O)N(Cc2ccc(-c3ccccc3-c3nn[nH]n3)cc2)c2ccccc21` (configuration not stated), the ED50 is reported as “inactive”.

— ChEMBL document CHEMBL1151011, “Heterocyclic analogs of the benzolactam nucleus of the non-peptidic growth hormone secretagogue L-692,429” (1995)
